Data: patent US11072588B2, “Barbituric acid derivatives comprising cationic and lipophilic groups” (UNIVERSITETET I TROMSØ—NORGES ARKTISKE UNIVERSITET, priority 2017, dated 2021)

What was measured:
[1] = tested on: Corynebacterium glutamicum ATCC 13032; assay: MIC assay, antibiotic susceptible reference strain; type: cell-based; conditions: Corynebacterium glutamicum, ATCC13032, read-out: Antimicrobial activity (MIC) C. g
Summary of the method: (§1)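 Broth microdilution followed CLSI M07-A9 with modifications: inoculum ~2.5-3×10^4 cells/mL in Mueller-Hinton broth, mixed 1:1 with test derivative, incubated 48 h at 35 °C. MIC was the lowest concentration giving no growth by OD600, tested in three parallels, with oxytetracycline as reference antibiotic.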

[2] = tested on: Escherichia coli ATCC 25922; assay: MIC assay, antibiotic susceptible reference strain; type: cell-based; conditions: Escherichia coli, ATCC25922, read-out: Antimicrobial activity (MIC) E. c
Summary of the method: as §1

[3] = tested on: Pseudomonas aeruginosa PA01, DSM 19880 (ATCC 15692); assay: MIC assay, antibiotic susceptible reference strain; type: cell-based; conditions: Pseudomonas aeruginosa, read-out: Antimicrobial activity (MIC) P. a
Summary of the method: as §1

[4] = tested on: Staphylococcus aureus ATCC 9144; assay: MIC assay, antibiotic susceptible reference strain; type: cell-based; conditions: Staphylococcus aureus, ATCC9144, read-out: Antimicrobial activity (MIC) S. a
Summary of the method: as §1

S. aureus IHT 99040 = assay: MIC, multi-resistant clinical isolate; type: cell-based, Staphylococcus aureus
S. aureus N315 = assay: MIC, multi-resistant clinical isolate; type: cell-based, Staphylococcus aureus
S. aureus NCTC 10442 = assay: MIC, multi-resistant clinical isolate; type: cell-based, Staphylococcus aureus
S. aureus strain 85/2082 = assay: MIC, multi-resistant clinical isolate; type: cell-based, Staphylococcus aureus
S. aureus strain WIS = assay: MIC, multi-resistant clinical isolate; type: cell-based, Staphylococcus aureus
E. coli 50579417 = assay: MIC, multi-resistant clinical isolate; type: cell-based, Escherichia coli
E. coli 50639799 = assay: MIC, multi-resistant clinical isolate; type: cell-based, Escherichia coli
E. coli 50676002 = assay: MIC, multi-resistant clinical isolate; type: cell-based, Escherichia coli; conditions: E. coli 50676002
E. coli 50739822 = assay: MIC, multi-resistant clinical isolate; type: cell-based, Escherichia coli
E. coli 50857972 = assay: MIC, multi-resistant clinical isolate; type: cell-based, Escherichia coli
P. aeruginosa 50692172 = assay: MIC, multi-resistant clinical isolate; type: cell-based, Pseudomonas aeruginosa
P. aeruginosa 50692520 = assay: MIC, multi-resistant clinical isolate; type: cell-based, Pseudomonas aeruginosa
P. aeruginosa K34-73 = assay: MIC, multi-resistant clinical isolate; type: cell-based, Pseudomonas aeruginosa; conditions: P. aeruginosa K34-73
P. aeruginosa K34-7 = assay: MIC, multi-resistant clinical isolate; type: cell-based, Pseudomonas aeruginosa
P. aeruginosa K44-24 = assay: MIC, multi-resistant clinical isolate; type: cell-based, Pseudomonas aeruginosa
K. pneumoniae 50531633 = assay: MIC, multi-resistant clinical isolate; type: cell-based, Klebsiella pneumoniae; conditions: K. pneumoniae 50531633, resistant to colistin
K. pneumoniae 50625602 = assay: MIC, multi-resistant clinical isolate; type: cell-based, Klebsiella pneumoniae
K. pneumoniae 50667959 = assay: MIC, multi-resistant clinical isolate; type: cell-based, Klebsiella pneumoniae
K. pneumoniae K66-45 = assay: MIC, multi-resistant clinical isolate; type: cell-based, Klebsiella pneumoniae
S. epidermidis = assay: Anti-biofilm activity (inhibition of biofilm formation); type: cell-based; conditions: Staphylococcus epidermidis, read-out: Anti-biofilm IC50
[5] = Escherichia coli, read-out: Antimicrobial activity (MIC)
[6] = Pseudomonas aeruginosa, read-out: Antimicrobial activity (MIC)
[7] = Klebsiella pneumoniae, read-out: Antimicrobial activity (MIC)

CC(C)(C)c1cc(CC2(Cc3cc(C(C)(C)C)cc(C(C)(C)C)c3)C(=O)N(CCCCNC(=N)N)C(=O)N(CCCCNC(=N)N)C2=O)cc(C(C)(C)C)c1 [8(iii), 1,1′-(4,4′-(5,5-bis(3,5-di-tert-butylbenzyl)-2,4,6-trioxodihydropyrimidine-1,3(2H,4H)-diyl)bis(butane-4,1-diyl))-diguanidine]
16 µg/mL: MIC (E. coli 50579417; [5]) | MIC (E. coli 50676002; [5]) | MIC (P. aeruginosa 50692172; [6]) | MIC (P. aeruginosa 50692520; [6]) | MIC (P. aeruginosa K34-7; Pseudomonas aeruginosa, K347, read-out: Antimicrobial activity (MIC)) | MIC (P. aeruginosa K44-24; Pseudomonas aeruginosa, K4424, read-out: Antimicrobial activity (MIC)) | MIC (K. pneumoniae 50531633; Klebsiella pneumoniae, 24 h, read-out: Antimicrobial activity (MIC)) | MIC (K. pneumoniae 50625602; [7])
4 µg/mL: MIC [2] | MIC [3] | MIC (S. aureus N315; Staphylococcus aureus, N315, read-out: Antimicrobial activity (MIC))
0.25 µg/mL: MIC [1]
(<2): selectivity index (EC50/MIC) (S. aureus IHT 99040; RBC EC50 / MIC) | selectivity index (EC50/MIC) (S. aureus NCTC 10442; RBC EC50 / MIC, S. aureus NCTC 10442) | selectivity index (EC50/MIC) (S. aureus strain 85/2082; RBC EC50 / MIC, S. aureus strain 85/2082) | selectivity index (EC50/MIC) (S. aureus strain WIS; RBC EC50 / MIC, S. aureus strain WIS)
2 µg/mL: MIC (S. aureus IHT 99040; Staphylococcus aureus, IHT99040, read-out: Antimicrobial activity (MIC)) | MIC (S. aureus NCTC 10442; Staphylococcus aureus, NCTC10442, read-out: Antimicrobial activity (MIC)) | MIC (S. aureus strain 85/2082; Staphylococcus aureus, 85/2082, read-out: Antimicrobial activity (MIC)) | MIC (S. aureus strain WIS; Staphylococcus aureus, read-out: Antimicrobial activity (MIC)) | IC50 (S. epidermidis)
8 µg/mL: MIC (E. coli 50639799; [5]) | MIC (E. coli 50739822; [5]) | MIC (E. coli 50857972; [5]) | MIC (P. aeruginosa K34-73; Pseudomonas aeruginosa, K3473, read-out: Antimicrobial activity (MIC)) | MIC (K. pneumoniae 50667959; [7]) | MIC (K. pneumoniae K66-45; Klebsiella pneumoniae, K6645, read-out: Antimicrobial activity (MIC))
(<1): selectivity index (EC50/MIC) (S. aureus N315; RBC EC50 / MIC, S. aureus N315)
(<0.25): selectivity index (EC50/MIC) (E. coli 50579417; RBC EC50 / MIC) | selectivity index (EC50/MIC) (E. coli 50676002; RBC EC50 / MIC) | selectivity index (EC50/MIC) (P. aeruginosa 50692172; RBC EC50 / MIC) | selectivity index (EC50/MIC) (P. aeruginosa 50692520; RBC EC50 / MIC) | selectivity index (EC50/MIC) (P. aeruginosa K34-7; RBC EC50 / MIC, P. aeruginosa K34-7) | selectivity index (EC50/MIC) (P. aeruginosa K44-24; RBC EC50 / MIC) | selectivity index (EC50/MIC) (K. pneumoniae 50531633; RBC EC50 / MIC) | selectivity index (EC50/MIC) (K. pneumoniae 50625602; RBC EC50 / MIC)
(<0.5): selectivity index (EC50/MIC) (E. coli 50639799; RBC EC50 / MIC) | selectivity index (EC50/MIC) (E. coli 50739822; RBC EC50 / MIC) | selectivity index (EC50/MIC) (E. coli 50857972; RBC EC50 / MIC) | selectivity index (EC50/MIC) (P. aeruginosa K34-73; RBC EC50 / MIC) | selectivity index (EC50/MIC) (K. pneumoniae 50667959; RBC EC50 / MIC) | selectivity index (EC50/MIC) (K. pneumoniae K66-45; RBC EC50 / MIC, K. pneumoniae K66-45)
1 µg/mL: MIC [4]
